Key:
OT-1 CD8^+ Texh cells = assay: T cell exhaustion in vitro, mouse OT-1 CD8^+ T cells; format: cell-based; details: 500 nM, 48 h
Method: We conducted experiments involving the isolations and treatments of CD8^+ T cells from both OT-1 mice (C57BL/6-Tg(TcraTcrb)1100Mjb/J; Jackson Laboratories) and T cells from human PBMCs. CD8^+ T cells were isolated from OT-1 mice using the EasySep Mouse CD8 T Cell Isolation Kit, followed by daily treatment with 10 ng/ml ovalbumin (257–264) (S7951-1MG; Sigma-Aldrich) for specified durations. After 3 days of ovalbumin treatment, OT-1 CD8^+ T cells were activated, and after 7 days of treatment, they reached a state of exhaustion. Human T cells were isolated from PBMCs using the EasySep Human CD3 Positive Selection Kit II (17851; STEMCELL) and cultured with Dynabeads (Cell/Dynabeads: 1:1, A56992; Thermo Fisher Scientific) for 3 days to induce activation and for 7 days to induce exhaustion. Both mouse and human T cells received a treatment of 500 nM NR-V04 2 days prior to harvesting. To characterize the T cell subtypes, we employed specific flow cytometry antibodies and conducted flow cytometry analysis.
Mouse tumors were excised and ∼200 mg of tumor tissue was enzymatically and mechanically digested using the mouse Tumor Dissociation Kit (Miltenyi Biotec) to obtain a single-cell suspension. […] Flow cytometry was performed on a three laser Cytek Aurora Cytometer (Cytek Biosciences) and analyzed using FlowJo software (BD Biosciences). […]

NR4A1 = target: T1, NR4A1 (Mus musculus, UniProt P12813); assay: PD: NR4A1 degradation in MC38 tumors in mice (immunoblotting); format: in vivo
T1 construct: from tissue; host or cells: MC38 tumours in mice (tumour lysates)
Method: Samples were lysed using radioimmunoprecipitation assay buffer (RIPA) lysis buffer (150 mM NaCl, 5 mM EDTA, 50 mM Tris pH 8.0, 0.5% sodium deoxycholate, 1% NP-40, 0.1% SDS) supplemented with 1 mM dithiothreitol and protease inhibitors. The lysates were separated by SDS-PAGE and analyzed using standard western blotting procedures ([Khan et al., 2019]). Antibodies: human NR4A1 (ab153914, 1:1,000; Abcam), mouse NR4A1 (14-5965-82, 1:1,000; Invitrogen), NR4A2 (AV38753, 1:1,000; Sigma-Aldrich), NR4A3 (TA804893, 1: 1,000; Thermo Fisher Scientific), VHL (68547, 1:1,000; Cell Signaling), β-actin (13E5, 1:5,000; Cell Signaling), β-tubulin (9F3, 1: 5,000; Cell Signaling), and GAPDH (D16H11, 1: 5,000; Cell Signaling) were employed for protein detection.
7–9-wk-old C57BL/6J, B6.129S2-Ighm^tm1Cgn/J (002288), B6.129S2-Nr4a1^tm1Jmi/J (NR4A1^−/−, 006187), and NOD-SCID interleukin-2 receptor gamma null (NSG) mice were purchased from Jackson Laboratories. […]
For syngeneic tumor models, 5 × 10^5 cells MC38, Yumm1.7, and Yummer1.7, 1 × 10^5 cells of B16F10 were resuspended in PBS and implanted into 7–9-wk-old mice subcutaneously. […] Blood samples were taken from the submandibular (facial) vein before each treatment and 42 days later for hematological analysis, and body weight was measured twice per week up to day 42. […]

T1 sequence (P12813 whole entry): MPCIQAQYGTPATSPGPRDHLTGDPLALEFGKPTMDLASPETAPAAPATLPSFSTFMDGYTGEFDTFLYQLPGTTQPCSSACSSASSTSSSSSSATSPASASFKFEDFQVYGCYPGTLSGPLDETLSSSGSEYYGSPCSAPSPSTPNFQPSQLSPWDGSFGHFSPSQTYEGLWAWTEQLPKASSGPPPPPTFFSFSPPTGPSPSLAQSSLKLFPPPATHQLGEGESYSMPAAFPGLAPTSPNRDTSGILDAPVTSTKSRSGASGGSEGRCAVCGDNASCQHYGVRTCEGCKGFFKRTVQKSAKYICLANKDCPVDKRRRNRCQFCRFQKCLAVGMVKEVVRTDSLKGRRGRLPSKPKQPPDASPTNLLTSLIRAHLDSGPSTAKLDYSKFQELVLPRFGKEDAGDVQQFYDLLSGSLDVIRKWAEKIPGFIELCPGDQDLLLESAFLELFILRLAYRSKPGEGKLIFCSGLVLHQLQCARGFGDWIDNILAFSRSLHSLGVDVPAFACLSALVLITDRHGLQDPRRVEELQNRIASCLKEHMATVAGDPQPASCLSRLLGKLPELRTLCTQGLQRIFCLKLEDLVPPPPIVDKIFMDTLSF

With CC1=C(O)C(=O)C=C2C1=CC=C1[C@@]2(C)CC[C@@]2(C)[C@@H]3C[C@](C)(C(=O)NCCOCCOCCOCCOCC(=O)N[C@H](C(=O)N4C[C@H](O)C[C@H]4C(=O)N[C@@H](C)c4ccc(-c5scnc5C)cc4)C(C)(C)C)CC[C@]3(C)CC[C@]12C [NR-V04] the “CD8^+ Texh cells (PD1^+Tim3^+)” value (OT-1 CD8^+ Texh cells) was “significant reduction in CD8^+ Texh cells”, the “NR4A1 protein in MC38 tumors at termination” value (NR4A1; 8 doses for 4 wk, 1.8 mg/kg NR-V04 or 0.75 mg/kg celastrol, every 4 days) was “almost completely degraded” and the “NR4A1 degradation in MC38 tumors” value (NR4A1; two doses of 1.8 mg/kg i.p., tumors collected 1-4 days after the last treatment) was “significant degradation of NR4A1 starting from day 1 and persisting for 3 days”.
